Residues, ends and D or L forms follow the SMILES beside them.
Tests used:
Vero E6 cells [1] = assay: Bio-orthogonal labeling of protein targets in Vero E6 cells, in-gel fluorescence; type: cell-based, African green monkey; settings: for labelling of the 24-25-kDa protein by K11777-alkyne after pre-treatment: pre-treatment 1 μM K777, 1 μM K777 alkyne, SARS-CoV-2 infected and uninfected cells
Experimental: 4N-propargyl-K11777 was added at concentrations of 1-10 µM to Vero E6 (African green monkey kidney cells), with and without infection by SARS CoV-2 viral particles at an multiplicity of infection of 0.1. […] Cells growth continued for 4 days, followed by harvest, and ˜ 20 million cells were suspended in 1 mL of lysis buffer (200 mM Tris, 4% CHAPS, 1M NaCl, 8 M Urea, pH=8) and protease inhibitor cocktail (Sigma Aldrich) at a ratio of 50:1 (v/v). Cells were lysed by sonication (ThermoFisher Scientific), with the sample on ice, with a ⅛-inch probe at 20% amplitude for 3-seconds, three times with a minute delay between pulses. The cell debris was pelleted (10,000×g for 10 minutes) followed by removal of the supernatant and determination of protein concentration by BCA assay (ThermoFisher Scientific). Labeling of the K11777-alkyne-treated cells was performed in a stepwise fashion whereby 100 mM TBTA in 1:4 DMSO: n-butanol (v/v) was added to 1 mM CuSO4 in water, followed by the addition of 20 mM Cy7-azide (Click Chemistry Tools) in DMSO, 24 μg cell lysate, and finally 2.5 mM sodium ascorbate in water. This reaction was incubated at room temperature for 1-3 hours and quenched by the addition ice-cold methanol (200 μL), chloroform (75 μL), and water (150 μL) followed by vortexing and centrifugation at 15,000 RPM at 4° C. for 15 minutes. […] Then, 4× loading dye (240 mM Tris-HCl, 8% SDS (w/v), 0.004% bromophenol blue (to avoid fluorescence from the dye), 5 mM DTT, and MilliQ water was added to a total volume of 24 μL. Samples were heated to 95° C. for 5 minutes followed by a brief centrifugation at 5,000 RPM for 1 min. The protein-standards ladder (Bio-Rad, Precision Plus Protein™ Dual Color Standards) was diluted 10,000 fold in 4% SDS buffer, loading dye, and water and loading dye 4× loading dye and water to avoid strong fluorescence from the ladder during imaging. Samples were analyzed on a 12% Bis-Tris Nu-PAGE gel (Invitrogen). […] Densitometry of in gel fluorescence was conducted using ImageJ. The gels were also analyzed by Coomassie Brilliant Blue R-250 staining (Bio-Rad).

Vero E6 cells [2] = assay: Azide enrichment and proteomic analysis of K11777-alkyne treated Vero E6 cells; type: cell-based, African green monkey
Experimental: Cell lysates of Vero E6 cells were prepared as described above. Enrichment of alkyne-modified proteins was conducted using the Click-&-Go Protein Enrichment Kit (Click Chemistry Tools) and the protocols thereof. Proteolysis of the resin-bound, enriched proteins, which had been reduced with DTT and alkylated with iodoacetamide, was conducted by addition of 1 μg of Trypsin Gold (Promega) at 37° C. overnight with gentle agitation. The digested peptides were then eluted from the column and subjected to desalting using Pierce™ C18 Tips, 100 μL bed (Thermo Fisher Scientific). The desalted peptides were concentrated to dryness via speed vacuum centrifugation, and suspended in 25 mM ammonium bicarbonate. […]
Data were processed using MaxQuant 1.6.14. Label-free quantification was enabled at the default parameters. […] MaxQuant result files were analyzed using Perseus 1.6.14. Reverse hits, potential contaminant hits, hits only identified by site and hits for which only one peptide was detected were removed. Only proteins which were not detected in the control were considered. […] Finally, proteins which were detected in at least two test samples were clustered based on highest to lowest intensity in the 5 μM and 10 μM treated columns at default parameters (column clustering was disabled) and plotted as a heat map.

cathepsin L [3] = biological target: T1, cathepsin L (Homo sapiens, UniProt P07711); assay: Kinetic assay for cathepsin L; type: biochemical
Experimental: (§1) For assays of cathepsin B, L, and S, cruzain inhibitors were evaluated in reaction mixtures containing a buffer of sodium acetate (pH 5.5), 1 mM CHAPS, 1 mM Na2EDTA, and 5 mM DTT at 25° C. The substrate Cbz-Phe-Arg-AMC was dissolved in 100% DMSO, as were all inhibitors, and aliquots of both substrates and inhibitors were added to 0.25 mL reaction mixtures to final concentrations of 10% DMSO (v/v). […] Cruzain inhibitors were added at seven concentrations and one fixed concentration of Cbz-Phe-Arg-AMC, and time courses of AMC formation were analyzed as with cruzain.

cathepsin S = cathepsin S (Homo sapiens, UniProt P25774); assay: Kinetic assay for cathepsin S; type: biochemical
Experimental: as §1

cathepsin B = cathepsin B (Homo sapiens, UniProt P07858); assay: Kinetic assay for cathepsin B; type: biochemical; settings: substrate, pH 5.5, 25° C.
cruzain = cruzain (Trypanosoma cruzi, UniProt P25779); assay: Cruzain inactivation; type: biochemical
cathepsin L [4] = biological target: T1, cathepsin L; assay: Proteolysis of SARS CoV-2 Spike protein by cathepsin L; type: biochemical; settings: pH 5.5
pseudovirus SARS CoV-1 = settings: cited from earlier work
host cells = assay: Toxicity in host cells

T1 sequence (P07711 114-333): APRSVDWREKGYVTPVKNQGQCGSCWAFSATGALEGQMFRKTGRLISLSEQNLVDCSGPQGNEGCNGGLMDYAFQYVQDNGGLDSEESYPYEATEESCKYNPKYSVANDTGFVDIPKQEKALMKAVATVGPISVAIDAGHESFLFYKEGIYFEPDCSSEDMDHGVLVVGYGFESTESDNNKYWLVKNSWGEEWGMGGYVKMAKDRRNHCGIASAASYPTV
Sequence of cathepsin S (P25774 115-331): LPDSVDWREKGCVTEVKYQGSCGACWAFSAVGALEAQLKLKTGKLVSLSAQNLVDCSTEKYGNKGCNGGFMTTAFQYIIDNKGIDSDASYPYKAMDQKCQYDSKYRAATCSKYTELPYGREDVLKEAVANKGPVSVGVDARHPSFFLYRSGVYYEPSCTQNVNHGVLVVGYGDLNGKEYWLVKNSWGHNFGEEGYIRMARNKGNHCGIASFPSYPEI
Sequence of cruzain (P25779 123-337): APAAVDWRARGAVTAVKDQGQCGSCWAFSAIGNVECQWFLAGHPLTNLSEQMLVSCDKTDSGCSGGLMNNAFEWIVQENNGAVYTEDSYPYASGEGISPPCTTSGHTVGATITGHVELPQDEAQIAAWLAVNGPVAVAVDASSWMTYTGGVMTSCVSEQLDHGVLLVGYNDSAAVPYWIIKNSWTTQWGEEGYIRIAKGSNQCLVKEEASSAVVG

In the case of `C#CCN1CCN(C(=O)N[C@@H](Cc2ccccc2)C(=O)N[C@H](/C=C/S(=O)(=O)c2ccccc2)CCc2ccccc2)CC1` [N4-Propargyl-K11777, N-((S)-1-oxo-3-phenyl-1-(((S,E)-5-phenyl-1-(phenylsulfonyl)pent-1-en-3-yl)amino)propan-2-yl)-4-(prop-2-yn-1-yl)piperazine-1-carboxamide], the “proteins labeled in Vero E6 cells” value (Vero E6 cells [1]; infected and un-infected with CoV-2, Cy7 azide) is reported as “labels only cellular proteins of an apparent molecular weight of 24-25 kDa”, the “most enriched labeled proteins (bead capture, mass spectrometry)” value (Vero E6 cells [2]; listed as K777 alkyne) is reported as “cathepsins B and L are strongly enriched” and the “most enriched labeled proteins (bead capture, mass spectrometry)” value (Vero E6 cells [2]; listed as N4-propargyl analogue of K11777) is reported as “cathepsins L and B”.
`Cc1cc(=O)oc2cc(NC(=O)[C@H](CCCN=C(N)N)NC(=O)[C@H](Cc3ccccc3)NC(=O)OCc3ccccc3)ccc12` [Cbz-Phe-Arg-AMC, reference compound] (HELM PEPTIDE1{[O=C(OCc1ccccc1)[*:2]].F.R.[Cc1cc(=O)oc2cc(N[*:1])ccc12]}$$$$V2.0) gave a Michaelis constant (cathepsin L [3]; substrate, pH 5.5, 25° C.) of 2.9 µM, a Michaelis constant (cathepsin S; substrate, pH 5.5, 25° C.) of 60 µM and a Michaelis constant (cathepsin B) of 150 µM.
In the case of `CN1CCN(C(=O)N[C@@H](Cc2ccccc2)C(=O)N[C@H](/C=C/S(=O)(=O)c2ccccc2)CCc2ccccc2)CC1` [K11777, 4-methyl-N-((S)-1-oxo-3-phenyl-1-(((S,E)-5-phenyl-1-(phenylsulfonyl)pent-1-en-3-yl)amino)propan-2-yl)piperazine-1-carboxamide], the “inactivation of cathepsin L” value (cathepsin L [3]) is reported as “exceptionally potent, covalent inactivator”, the “inactivation of cathepsin S” value (cathepsin S) is reported as “exceptionally potent, covalent inactivator” and the inactivation of cruzain (cruzain) is reported as “exceptionally potent, covalent inactivator”. For the same molecule, the “cathepsin L-catalyzed proteolysis of SARS CoV-2 Spike protein” value (cathepsin L [4]) was “blocked”, the “cathepsin L-catalyzed proteolysis of SARS CoV-2 Spike protein” value (cathepsin L [4]; listed as K777) was “inhibited” and the “labelling of the 24-25-kDa protein by K11777-alkyne after pre-treatment” value (Vero E6 cells [1]) was “prevented labelling”. The “labelling of the 24-25-kDa protein by K11777-alkyne after pre-treatment” value (Vero E6 cells [1]; listed as K777) was “blocked”, the “infection of Vero, A549 and other mammalian cells by pseudovirus SARS CoV-1” value (pseudovirus SARS CoV-1) was “exceptionally potent inhibitor” and the “toxicity in host cells” value (host cells) was “No toxicity”.

Reference: US20230301988A1 (priority 2020, published 2023)
